Format in all cases: biochemical
The target in one assay is T1, JAK3 (Homo sapiens, UniProt P52333).
T1 construct: All four purified enzymes contain only the catalytic domain; His (N); purchased Carna Biosciences, Inc; host or cells: baculovirus expression system
In words: JAK3 kinase assay (HTRF, inhibition of phosphorylation of a synthetic peptide). The following applies: catalytic domain, His-tag; 2 μM ATP (Km); read-out: JAK3 kinase inhibitory activity (EC50). The method in brief: (§1)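 HTRF detection (streptavidin-XL665, cryptate anti-phospho antibody, overnight in the dark) after EDTA stop of a 20-30 min RT reaction on 1 μM TK substrate-biotin. Km-level ATP per kinase: 7 μM for JAK1 and 13 μM for TYK2, both N-terminal GST, with 50 nM SEB; 4 μM for JAK2 and 2 μM for JAK3, both His-tagged. Catalytic domains only; DMSO 0.75%.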
A general note: TR-FRET usually uses a lanthanide donor and a delayed reading to cut background.

The next assay addresses T2, JAK2 (Homo sapiens, UniProt O60674).
T2 construct: All four purified enzymes contain only the catalytic domain; His (N); purchased Carna Biosciences, Inc; host or cells: baculovirus expression system
The experiment in a line: JAK2 kinase assay (HTRF, inhibition of phosphorylation of a synthetic peptide). The following applies: catalytic domain, His-tag; 4 μM ATP (Km); read-out: JAK2 kinase inhibitory activity (EC50). The method in brief: as §1

A further assay deals with T3, JAK1 (Homo sapiens, UniProt P23458).
T3 construct: JAK1 (aa 850-1154) and TYK2 (aa 871-1187) are expressed with an N-terminally fused GST-tag; GST (N); purchased Carna Biosciences, Inc; host or cells: baculovirus expression system
T3 sequence (P23458 850-1154): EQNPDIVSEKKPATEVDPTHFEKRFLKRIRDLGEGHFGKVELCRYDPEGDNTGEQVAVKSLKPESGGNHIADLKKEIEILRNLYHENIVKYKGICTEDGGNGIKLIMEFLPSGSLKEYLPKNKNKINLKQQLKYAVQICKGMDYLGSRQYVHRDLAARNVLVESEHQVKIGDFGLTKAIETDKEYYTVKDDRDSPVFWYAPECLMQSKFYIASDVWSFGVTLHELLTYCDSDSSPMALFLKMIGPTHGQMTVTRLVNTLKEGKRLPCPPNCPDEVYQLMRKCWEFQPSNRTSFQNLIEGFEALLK
In words: JAK1 kinase assay (HTRF, inhibition of phosphorylation of a synthetic peptide). The following applies: catalytic domain aa 850-1154, GST-tag; 7 μM ATP (Km); read-out: JAK1 kinase inhibitory activity (EC50). Summed up: as §1

This passage reports EC50 results from US9586961B2, “Homopiperazine derivatives as protein tyrosine kinase inhibitors and pharmaceutical use thereof” (LEO PHARMA A/S, priority 2010, dated 2017).

T2 sequence (O60674 849-1124 limits assumed): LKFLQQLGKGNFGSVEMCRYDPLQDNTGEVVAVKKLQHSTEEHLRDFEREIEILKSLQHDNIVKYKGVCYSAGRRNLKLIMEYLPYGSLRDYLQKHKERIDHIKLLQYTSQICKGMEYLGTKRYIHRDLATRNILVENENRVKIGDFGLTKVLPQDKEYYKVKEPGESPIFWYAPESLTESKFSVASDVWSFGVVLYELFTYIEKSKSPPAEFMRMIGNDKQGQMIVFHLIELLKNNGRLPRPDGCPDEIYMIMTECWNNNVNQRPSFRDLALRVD
T1 sequence (P52333 822-1111 limits assumed): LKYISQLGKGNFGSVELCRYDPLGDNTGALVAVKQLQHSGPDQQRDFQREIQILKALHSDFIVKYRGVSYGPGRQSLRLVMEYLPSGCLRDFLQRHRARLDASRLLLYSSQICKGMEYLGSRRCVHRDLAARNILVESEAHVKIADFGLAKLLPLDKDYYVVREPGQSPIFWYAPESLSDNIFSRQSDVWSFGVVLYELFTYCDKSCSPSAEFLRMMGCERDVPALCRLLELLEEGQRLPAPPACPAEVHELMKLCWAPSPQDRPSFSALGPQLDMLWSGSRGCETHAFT

Regarding `O=C(c1ccsn1)N1CCN(c2ncnc3[nH]ccc23)CC2(CC2)C1` [Example 200, isothiazol-3-yl-[5-(7H-pyrrolo[2,3-d]pyrimidin-4-yl)-5,8-diazaspiro[2.6]nonan-8-yl]methanone], the EC50 at JAK3, on JAK2 and at JAK1 was 100 to 1000 nM throughout.

For `O=C(c1cnsn1)N1CCN(c2ncnc3[nH]ccc23)CC2(CC2)C1` [Example 202, [5-(7H-pyrrolo[2,3-d]pyrimidin-4-yl)-5,8-diazaspiro[2.6]nonan-8-yl]-(1,2,5-thiadiazol-3-yl)methanone], the EC50 at JAK3, on JAK2 and at JAK1 was 100 to 1000 nM each time.

As for `O=C(c1c[nH]nn1)N1CCN(c2ncnc3[nH]ccc23)CC2(CC2)C1` [Example 204, [5-(7H-pyrrolo[2,3-d]pyrimidin-4-yl)-5,8-diazaspiro[2.6]nonan-8-yl]-(1H-triazol-4-yl)methanone], the EC50 on JAK3, on JAK2 and at JAK1 was 100 to 1000 nM in each case.

Turning to `O=C(c1c[nH]nn1)N1CCCN(c2ncnc3[nH]ccc23)CC12CC2` [Example 205, [5-(7H-pyrrolo[2,3-d]pyrimidin-4-yl)-5,9-diazaspiro[2.6]nonan-9-yl]-(1H-triazol-4-yl)methanone], the EC50 at JAK3, at JAK2 and on JAK1 was 100 to 1000 nM throughout.

For `Cc1[nH]ncc1C(=O)N1CCN(c2ncnc3[nH]ccc23)CC2(CC2)C1` [Example 206, (5-methyl-1H-pyrazol-4-yl)-[5-(7H-pyrrolo[2,3-d]pyrimidin-4-yl)-5,8-diazaspiro[2.6]nonan-8-yl]methanone], the EC50 at JAK3, at JAK2 and on JAK1 was 100 to 1000 nM each time.

In the case of `Cc1[nH]ncc1C(=O)N1CCCN(c2ncnc3[nH]ccc23)CC12CC2` [Example 207, (5-methyl-1H-pyrazol-4-yl)-[5-(7H-pyrrolo[2,3-d]pyrimidin-4-yl)-5,9-diazaspiro[2.6]nonan-9-yl]methanone], the concentration giving a half-maximal response (EC50) (as a rule, the midpoint of the concentration-response curve) was over 1000 nM on JAK3, 100 to 1000 nM on JAK2 and over 1000 nM on JAK1.

With `N#Cc1c[nH]c(C(=O)N2CCN(c3ncnc4[nH]ccc34)CC3(CC3)C2)c1` [Example 208, 5-[5-(7H-pyrrolo[2,3-d]pyrimidin-4-yl)-5,8-diazaspiro[2.6]nonane-8-carbonyl]-1H-pyrrole-3-carbonitrile], the 50% effective concentration (EC50) at JAK3 is 100 to 1000 nM; on JAK2 it was under 100 nM; on JAK1, under 100 nM.

For `O=C(c1cnsc1)N1CCN(c2ncnc3[nH]ccc23)CC2(CC2)C1` [Example 210, isothiazol-4-yl-[5-(7H-pyrrolo[2,3-d]pyrimidin-4-yl)-5,8-diazaspiro[2.6]nonan-8-yl]methanone], the concentration giving a half-maximal response (EC50) at JAK3, at JAK2 and at JAK1 was 100 to 1000 nM throughout.

Turning to `O=C(c1cnsc1)N1CCCN(c2ncnc3[nH]ccc23)CC12CC2` [Example 211, isothiazol-4-yl-[5-(7H-pyrrolo[2,3-d]pyrimidin-4-yl)-5,9-diazaspiro[2.6]nonan-9-yl]methanone], the EC50 on JAK3, on JAK2 and on JAK1 was 100 to 1000 nM throughout.

Regarding `O=C(c1cc(O)[nH]n1)N1CCCN(c2ncnc3[nH]ccc23)CC12CC2` [Example 212, (5-hydroxy-1H-pyrazol-3-yl)-[5-(7H-pyrrolo[2,3-d]pyrimidin-4-yl)-5,9-diazaspiro[2.6]nonan-9-yl]methanone], the half-maximal effective concentration (EC50) on JAK3, on JAK2 and at JAK1 was 100 to 1000 nM in each case.

Regarding `O=C(c1cncc(F)c1)N1CCN(c2ncnc3[nH]ccc23)CC2(CC2)C1` [Example 213, (5-fluoro-3-pyridyl)-[5-(7H-pyrrolo[2,3-d]pyrimidin-4-yl)-5,8-diazaspiro[2.6]nonan-8-yl]methanone], the EC50 was over 1000 nM at JAK3, 100 to 1000 nM on JAK2 and 100 to 1000 nM at JAK1.

For the compound `O=C(c1cncc(F)c1)N1CCCN(c2ncnc3[nH]ccc23)CC12CC2` [Example 214, (5-fluoro-3-pyridyl)-[5-(7H-pyrrolo[2,3-d]pyrimidin-4-yl)-5,9-diazaspiro[2.6]nonan-9-yl]methanone], the concentration for a half-maximal effect (EC50) on JAK3, at JAK2 and on JAK1 was 100 to 1000 nM throughout.

With `O=C(Cc1nnn[nH]1)N1CCN(c2ncnc3[nH]ccc23)CC2(CC2)C1` [Example 215, 1-[5-(7H-pyrrolo[2,3-d]pyrimidin-4-yl)-5,8-diazaspiro[2.6]nonan-8-yl]-2-(1H-tetrazol-5-yl)ethanone], the values for the EC50 at JAK3, on JAK2 and on JAK1 were 100 to 1000 nM, under 100 nM and under 100 nM, respectively.

`O=C(c1cscn1)N1CCN(c2ncnc3[nH]ccc23)CC2(CC2)C1` [Example 216, [5-(7H-pyrrolo[2,3-d]pyrimidin-4-yl)-5,8-diazaspiro[2.6]nonan-8-yl]-thiazol-4-yl-methanone]: the EC50 at JAK3, on JAK2 and at JAK1 was 100 to 1000 nM in each case.

On to `Cc1cc(CC(=O)N2CCCN(c3ncnc4[nH]ccc34)CC23CC3)on1` [Example 217, 2-(3-methylisoxazol-5-yl)-1-[5-(7H-pyrrolo[2,3-d]pyrimidin-4-yl)-5,9-diazaspiro[2.6]nonan-9-yl]ethanone], for which the concentration for a half-maximal effect (EC50) at JAK3 was over 1000 nM; on JAK2, 100 to 1000 nM; at JAK1, 100 to 1000 nM.

With `CN(CC#N)C(=O)N1CCN(c2ncnc3[nH]ccc23)CC2(CC2)C1` [Example 218, N-(cyanomethyl)-N-methyl-5-(7H-pyrrolo[2,3-d]pyrimidin-4-yl)-5,8-diazaspiro[2.6]nonane-8-carboxamide], the results for the 50% effective concentration (EC50) on JAK3, on JAK2 and at JAK1 were 100 to 1000 nM, under 100 nM and 100 to 1000 nM, respectively.

Regarding `N#CCN(CC#N)C(=O)N1CCN(c2ncnc3[nH]ccc23)CC2(CC2)C1` [Example 219, N,N-bis(cyanomethyl)-5-(7H-pyrrolo[2,3-d]pyrimidin-4-yl)-5,8-diazaspiro[2.6]nonane-8-carboxamide], the results for the EC50 at JAK3, at JAK2 and on JAK1 were 100 to 1000 nM, under 100 nM and 100 to 1000 nM, respectively.

With `CN(CCC#N)C(=O)N1CCN(c2ncnc3[nH]ccc23)CC2(CC2)C1` [Example 220, N-(2-cyanoethyl)-N-methyl-5-(7H-pyrrolo[2,3-d]pyrimidin-4-yl)-5,8-diazaspiro[2.6]nonane-8-carboxamide], the EC50 at JAK3, on JAK2 and on JAK1 was 100 to 1000 nM in each case.

In the case of `N#C[C@H]1CCCN1C(=O)N1CCN(c2ncnc3[nH]ccc23)CC2(CC2)C1` [Example 221, (2R)-1-[5-(7H-pyrrolo[2,3-d]pyrimidin-4-yl)-5,8-diazaspiro[2.6]nonane-8-carbonyl]pyrrolidine-2-carbonitrile], the EC50 at JAK3 was 100 to 1000 nM; at JAK2 it was under 100 nM; at JAK1 it was 100 to 1000 nM.

On to `N#C[C@@H]1CCCN1C(=O)N1CCN(c2ncnc3[nH]ccc23)CC2(CC2)C1` [Example 222, (2S)-1-[5-(7H-pyrrolo[2,3-d]pyrimidin-4-yl)-5,8-diazaspiro[2.6]nonane-8-carbonyl]pyrrolidine-2-carbonitrile], for which the 50% effective concentration (EC50) at JAK3 was 100 to 1000 nM; at JAK2 it was under 100 nM; on JAK1 it was 100 to 1000 nM.
